Measurements reported in the supplement of paper PMC10307832.

How the values were obtained:
Experiment in all cases: relative viability (nuclei count vs DMSO), 5 days (fraction); higher = more cells survive
EMC-BAC-2 = test system: EMC-BAC-2
Outline: (§1)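 Lung cancer cell lines were seeded in 1536-well plates and dosed by pin tool the next day, with either a single drug or a fixed anchor-drug dose combined with five library-drug doses (not always all listed) spaced in √10 steps. Five days later, one step fixed the cells and stained their nuclei (final 0.05% Triton X-100, 1% formaldehyde, 1 ug/ml Hoechst), and nuclei were counted on 4× images. Relative viability is the nuclei count in treated wells divided by the count in vehicle wells, and each value is the median of duplicate plates.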

NCI-H2347 = test system: NCI-H2347
Outline: as §1

NCI-H727 = test system: NCI-H727
Outline: as §1

NCI-H1993 = test system: NCI-H1993
Outline: as §1

NCI-H1734 = test system: NCI-H1734
Outline: as §1

NCI-H2009 = test system: NCI-H2009
Outline: as §1

NCI-H1915 = test system: NCI-H1915
Outline: as §1

LXF-289 = test system: LXF-289
Outline: as §1

EPLC-272H = test system: EPLC-272H
Outline: as §1

NCI-H1563 = test system: NCI-H1563
Outline: as §1

NCI-H322M = test system: NCI-H322M
Outline: as §1

NCI-H2126 = test system: NCI-H2126
Outline: as §1

NCI-H2023 = test system: NCI-H2023
Outline: as §1

NCI-H661 = test system: NCI-H661
Outline: as §1

PC-14 = test system: PC-14
Outline: as §1

SW 1573 = test system: SW 1573
Outline: as §1

LCLC-97TM1 = test system: LCLC-97TM1
Outline: as §1

NCI-H647 = test system: NCI-H647
Outline: as §1

H3255 = test system: H3255
Outline: as §1

SK-LU-1 = test system: SK-LU-1
Outline: as §1

HOP-62 = test system: HOP-62
Outline: as §1

NCI-H2085 = test system: NCI-H2085
Outline: as §1

CC(=O)O[C@@]12CO[C@@H]1C[C@H](O)[C@@]1(C)C(=O)[C@H](O)C3=C(C)[C@@H](OC(=O)[C@H](O)[C@@H](NC(=O)OC(C)(C)C)c4ccccc4)C[C@@](O)([C@@H](OC(=O)c4ccccc4)[C@H]21)C3(C)C [Docetaxel] + CC(C)C[C@H](NC(=O)[C@H](Cc1ccccc1)NC(=O)c1cnccn1)B(O)O [Bortezomib] (partner 0.002 µM)
relative viability (EMC-BAC-2; first compound 0.0002 µM): 0.963 | relative viability (EMC-BAC-2; first compound 0.000632 µM): 0.875 | relative viability (EMC-BAC-2; first compound 0.002 µM): 0.573 | relative viability (EMC-BAC-2; first compound 0.006325 µM): 0.306 | relative viability (EMC-BAC-2; first compound 0.02 µM): 0.206 | relative viability (NCI-H2347; first compound 0.0002 µM): 0.805 | relative viability (NCI-H2347; first compound 0.000632 µM): 0.832 | relative viability (NCI-H2347; first compound 0.002 µM): 0.326 | relative viability (NCI-H2347; first compound 0.006325 µM): 0.497 | relative viability (NCI-H2347; first compound 0.02 µM): 0.575 | relative viability (NCI-H727; first compound 0.0002 µM): 0.795 | relative viability (NCI-H727; first compound 0.000632 µM): 0.855 | relative viability (NCI-H727; first compound 0.002 µM): 0.474 | relative viability (NCI-H727; first compound 0.006325 µM): 0.473 | relative viability (NCI-H727; first compound 0.02 µM): 0.483 | relative viability (NCI-H1993; first compound 0.0002 µM): 0.961 | relative viability (NCI-H1993; first compound 0.000632 µM): 1.06 | relative viability (NCI-H1993; first compound 0.002 µM): 0.798 | relative viability (NCI-H1993; first compound 0.006325 µM): 0.608 | relative viability (NCI-H1993; first compound 0.02 µM): 0.399 | relative viability (NCI-H1734; first compound 0.0002 µM): 0.865 | relative viability (NCI-H1734; first compound 0.000632 µM): 0.577 | relative viability (NCI-H1734; first compound 0.002 µM): 0.323 | relative viability (NCI-H1734; first compound 0.006325 µM): 0.325 | relative viability (NCI-H1734; first compound 0.02 µM): 0.222 | relative viability (NCI-H2009; first compound 0.0002 µM): 0.99 | relative viability (NCI-H2009; first compound 0.000632 µM): 1.01 | relative viability (NCI-H2009; first compound 0.002 µM): 0.914 | relative viability (NCI-H2009; first compound 0.006325 µM): 0.263 | relative viability (NCI-H2009; first compound 0.02 µM): 0.178 | relative viability (NCI-H1915; first compound 0.0002 µM): 0.905 | relative viability (NCI-H1915; first compound 0.000632 µM): 0.95 | relative viability (NCI-H1915; first compound 0.002 µM): 0.577 | relative viability (NCI-H1915; first compound 0.006325 µM): 0.147 | relative viability (NCI-H1915; first compound 0.02 µM): 0.116 | relative viability (LXF-289; first compound 0.0002 µM): 0.995 | relative viability (LXF-289; first compound 0.000632 µM): 0.81 | relative viability (LXF-289; first compound 0.002 µM): 0.594 | relative viability (LXF-289; first compound 0.006325 µM): 0.133 | relative viability (LXF-289; first compound 0.02 µM): 0.0991 | relative viability (EPLC-272H; first compound 0.0002 µM): 0.761 | relative viability (EPLC-272H; first compound 0.000632 µM): 0.506 | relative viability (EPLC-272H; first compound 0.002 µM): 0.209 | relative viability (EPLC-272H; first compound 0.006325 µM): 0.168 | relative viability (EPLC-272H; first compound 0.02 µM): 0.0779 | relative viability (NCI-H1563; first compound 0.0002 µM): 0.912 | relative viability (NCI-H1563; first compound 0.000632 µM): 1.02 | relative viability (NCI-H1563; first compound 0.002 µM): 0.989 | relative viability (NCI-H1563; first compound 0.006325 µM): 0.741 | relative viability (NCI-H1563; first compound 0.02 µM): 0.582 | relative viability (NCI-H322M; first compound 0.0002 µM): 1.11 | relative viability (NCI-H322M; first compound 0.000632 µM): 1.22 | relative viability (NCI-H322M; first compound 0.002 µM): 1.05 | relative viability (NCI-H322M; first compound 0.006325 µM): 0.602 | relative viability (NCI-H322M; first compound 0.02 µM): 0.469 | relative viability (NCI-H2126; first compound 0.0002 µM): 1.12 | relative viability (NCI-H2126; first compound 0.000632 µM): 1.09 | relative viability (NCI-H2126; first compound 0.002 µM): 1.04 | relative viability (NCI-H2126; first compound 0.006325 µM): 0.427 | relative viability (NCI-H2126; first compound 0.02 µM): 0.288 | relative viability (NCI-H2023; first compound 0.0002 µM): 0.89 | relative viability (NCI-H2023; first compound 0.000632 µM): 0.456 | relative viability (NCI-H2023; first compound 0.002 µM): 0.134 | relative viability (NCI-H2023; first compound 0.006325 µM): 0.101 | relative viability (NCI-H2023; first compound 0.02 µM): 0.0677 | relative viability (NCI-H661; first compound 0.0002 µM): 0.702 | relative viability (NCI-H661; first compound 0.000632 µM): 0.784 | relative viability (NCI-H661; first compound 0.002 µM): 0.68 | relative viability (NCI-H661; first compound 0.006325 µM): 0.634 | relative viability (NCI-H661; first compound 0.02 µM): 0.224 | relative viability (PC-14; first compound 0.0002 µM): 0.826 | relative viability (PC-14; first compound 0.000632 µM): 0.803 | relative viability (PC-14; first compound 0.002 µM): 0.132 | relative viability (PC-14; first compound 0.006325 µM): 0.103 | relative viability (PC-14; first compound 0.02 µM): 0.0579 | relative viability (SW 1573; first compound 0.0002 µM): 1.05 | relative viability (SW 1573; first compound 0.000632 µM): 0.364 | relative viability (SW 1573; first compound 0.002 µM): 0.265 | relative viability (SW 1573; first compound 0.006325 µM): 0.195 | relative viability (SW 1573; first compound 0.02 µM): 0.201 | relative viability (LCLC-97TM1; first compound 0.0002 µM): 0.624 | relative viability (LCLC-97TM1; first compound 0.000632 µM): 0.125 | relative viability (LCLC-97TM1; first compound 0.002 µM): 0.106 | relative viability (LCLC-97TM1; first compound 0.006325 µM): 0.083 | relative viability (LCLC-97TM1; first compound 0.02 µM): 0.051 | relative viability (NCI-H647; first compound 0.0002 µM): 0.762 | relative viability (NCI-H647; first compound 0.000632 µM): 0.23 | relative viability (NCI-H647; first compound 0.002 µM): 0.113 | relative viability (NCI-H647; first compound 0.006325 µM): 0.123 | relative viability (NCI-H647; first compound 0.02 µM): 0.0811 | relative viability (H3255; first compound 0.0002 µM): 0.864 | relative viability (H3255; first compound 0.000632 µM): 0.497 | relative viability (H3255; first compound 0.002 µM): 0.489 | relative viability (H3255; first compound 0.006325 µM): 0.284 | relative viability (H3255; first compound 0.02 µM): 0.272 | relative viability (SK-LU-1; first compound 0.0002 µM): 0.951 | relative viability (SK-LU-1; first compound 0.000632 µM): 0.392 | relative viability (SK-LU-1; first compound 0.002 µM): 0.307 | relative viability (SK-LU-1; first compound 0.006325 µM): 0.267 | relative viability (SK-LU-1; first compound 0.02 µM): 0.208 | relative viability (HOP-62; first compound 0.0002 µM): 0.726 | relative viability (HOP-62; first compound 0.000632 µM): 0.828 | relative viability (HOP-62; first compound 0.02 µM): 0.128 | relative viability (NCI-H2085; first compound 0.0002 µM): 0.882 | relative viability (NCI-H2085; first compound 0.000632 µM): 1.06 | relative viability (NCI-H2085; first compound 0.002 µM): 0.718 | relative viability (NCI-H2085; first compound 0.006325 µM): 0.54 | relative viability (NCI-H2085; first compound 0.02 µM): 0.46
